In patent US10189819B2, “Factor IXa inhibitors” (MERCK SHARP & DOHME CORP., priority 2014, dated 2019):

The compounds below were run against Factor IXa (Homo sapiens (Human), UniProt P00740) (assay: Determination of inhibitory activity against Factor IXa (cleavage of fluorescent peptide CH3SO2-D-CHG-Gly-Arg-AFC)). Conditions: read-out: FIXa IC50.
Type: biochemical
Protocol: Determination of Inhibitory Activity Against Factor IXa
Formation of a clot to stem bleeding at a site of blood vessel injury involves the coordinated activity of a group of plasma proteins that initiate and propagate fibrin formation and subsequently protect fibrin from premature degradation. Factor IX is a key component of the plasma system that forms a fibrin clot at a site of vascular injury. The activity of Factor IXa is measured by monitoring the cleavage of the fluorescent peptide, CH3SO2-D-CHG-Gly-Arg-AFC.AcOH (“CHG” is cyclohexyl-glycine and “AFC” is trifluoro aminomethyl coumarin). Factor IXa cleaves the amide bond between Arg and AFC, thereby releasing the AFC fluorophore. The free AFC can be detected with a fluorescence detector at an excitation wavelength of 405 nm and emission wavelength of 510 nm.

Factor IXa, sequence (P00740 227-461): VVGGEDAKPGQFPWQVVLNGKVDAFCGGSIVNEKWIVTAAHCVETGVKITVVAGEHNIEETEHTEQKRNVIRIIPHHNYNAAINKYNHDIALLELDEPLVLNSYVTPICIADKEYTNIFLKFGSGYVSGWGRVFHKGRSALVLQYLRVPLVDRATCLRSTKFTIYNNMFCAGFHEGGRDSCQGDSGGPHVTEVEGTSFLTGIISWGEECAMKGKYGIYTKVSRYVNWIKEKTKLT
Factor IXa, sequence (P00740 47-191 partner): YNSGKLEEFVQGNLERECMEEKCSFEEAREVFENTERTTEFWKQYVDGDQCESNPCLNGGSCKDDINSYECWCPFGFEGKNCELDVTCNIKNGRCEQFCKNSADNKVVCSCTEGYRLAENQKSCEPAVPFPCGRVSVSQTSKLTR

| Compound | IC50 [µM] |
| --- | --- |
| Cc1cc2nc([C@@H](CNC(=O)c3c(Cl)cc(-n4cnnc4)cc3Cl)c3cncc(F)c3)[nH]c2cc1C [Example 38, (R)-2,6-Dichloro-N-(2-(5,6-dimethyl-1H-benzo[d]imidazol-2-yl)-2-(5-fluoropyridin-3-yl)ethyl)-4-(4H-1,2,4-triazol-4-yl)benzamide] | 0.0148 |
| Cc1ncn(-c2cc(Cl)c(C(=O)NC[C@@H](c3ccc(C(=O)O)cc3)c3nc4c(C)cc(Cl)cc4[nH]3)c(Cl)c2)n1 [Example 41, (R)-4-(1-(6-Chloro-4-methyl-1H-benzo[d]imidazol-2-yl)-2-(2,6-dichloro-4-(3-methyl-1H-1,2,4-triazol-1-yl)benzamido)ethyl)benzoic acid] | 0.0186 |
| CCOC(=O)c1ccc([C@H](CNC(=O)c2c(Cl)cc(-n3cnc(C)n3)cc2Cl)c2nc3c(C)cc(Cl)cc3[nH]2)cc1 [Example 42, (R)-Ethyl 4-(1-(6-chloro-4-methyl-1H-benzo[d]imidazol-2-yl)-2-(2,6-dichloro-4-(3-methyl-1H-1,2,4-triazol-1-yl)benzamido)ethyl)benzoate] | 0.0391 |
| O=C(NC[C@@H](c1ccc(F)cc1)c1nc2ccc(Cl)cc2o1)c1c(Cl)cc(-n2cnnc2)cc1Cl [Example 43, (R)-2,6-Dichloro-N-(2-(6-chlorobenzo[d]oxazol-2-yl)-2-(4-fluorophenyl)ethyl)-4-(4H-1,2,4-triazol-4-yl)benzamide] | 0.0962 |
| Cc1cc2nc([C@@](C)(CNC(=O)c3c(Cl)cc(-n4cnnc4)cc3Cl)c3ccc(F)cc3)[nH]c2cc1C [Example 70] | 0.0056 |
| Cc1cc2cc([C@@H](CNC(=O)c3c(Cl)cc(-n4cnnc4)cc3Cl)c3ccccc3)[nH]c2cc1C [Example 74, (R)-2,6-dichloro-N-(2-(5,6-dimethyl-1H-indol-2-yl)-2-phenylethyl)-4-(4H-1,2,4-triazol-4-yl)benzamide] | 0.0291 |
| Cc1ncn(-c2cc(Cl)c(C(=O)NC[C@@H](c3cccc(F)c3)c3ccc4[nH]c(C)nc4c3)c(Cl)c2)n1 [Example 75, (R)-2,6-dichloro-N-(2-(3-fluorophenyl)-2-(2-methyl-1H-benzo[d]imidazol-5-yl)ethyl)-4-(3-methyl-1H-1,2,4-triazol-1-yl)benzamide] | 0.0091 |
| Cc1ncn(-c2cc(Cl)c(C(=O)NC[C@@H](c3cccc(F)c3)c3cnc4[nH]c(C)nc4c3)c(Cl)c2)n1 [Example 76, (S)-2,6-dichloro-N-(2-(3-fluorophenyl)-2-(2-methyl-3H-imidazo[4,5-b]pyridin-6-yl)ethyl)-4-(3-methyl-1H-1,2,4-triazol-1-yl)benzamide] | 0.0806 |
| Cc1ncn(-c2cc(Cl)c(C(=O)NC[C@@H](c3cccc(F)c3)c3ccc4sc(C)nc4c3)c(Cl)c2)n1 [Example 83, (R)-2,6-dichloro-N-(2-(3-fluorophenyl)-2-(2-methylbenzo[d]thiazol-5-yl)ethyl)-4-(3-methyl-1H-1,2,4-triazol-1-yl)benzamide] | 0.0595 |
| Cc1ccc2nn([C@@H](CNC(=O)c3ccc(-n4cnnc4)cc3Cl)c3ccccc3)cc2c1 [Example 84, (R)-2-chloro-N-(2-(5-methyl-2H-indazol-2-yl)-2-phenylethyl)-4-(4H-1,2,4-triazol-4-yl)benzamide] | 0.24 |
| Cc1ccc2c(cnn2[C@H](CNC(=O)c2ccc(-n3cnnc3)cc2Cl)c2ccccc2)c1 [Example 85, (S)-2-chloro-N-(2-(5-methyl-1H-indazol-1-yl)-2-phenylethyl)-4-(4H-1,2,4-triazol-4-yl)benzamide] | 0.038 |
| Cc1ccc2c(cnn2[C@H](CNC(=O)c2c(Cl)cc(-n3cc(CCO)nn3)cc2Cl)c2cnco2)c1 [Example 86, (R)-2,6-dichloro-4-(4-(2-hydroxyethyl)-1H-1,2,3-triazol-1-yl)-N-(2-(5-methyl-1H-indazol-1-yl)-2-(oxazol-5-yl)ethyl)benzamide] | 0.007 |
| Cc1ccc2c([C@H](CNC(=O)c3ccc(-n4cnnc4)cc3Cl)c3ccccc3)n[nH]c2c1 [Example 88, (S)-2-chloro-N-(2-(6-methyl-1H-indazol-3-yl)-2-phenylethyl)-4-(4H-1,2,4-triazol-4-yl)benzamide] | 0.0688 |
| Cc1ccc2nn([C@@H](CNC(=O)c3c(Cl)cc(-n4cnnc4)cc3Cl)c3ccccc3)nc2c1 [Example 89, (R)-2,6-dichloro-N-(2-(5-methyl-2H-benzo[d][1,2,3]triazol-2-yl)-2-phenylethyl)-4-(4H-1,2,4-triazol-4-yl)benzamide] | 0.0209 |
| Cc1ccc2c(c1)nnn2[C@H](CNC(=O)c1c(Cl)cc(-n2cnnc2)cc1Cl)c1ccccc1 [Example 90, (S)-2,6-dichloro-N-(2-(5-methyl-1H-benzo[d][1,2,3]triazol-1-yl)-2-phenylethyl)-4-(4H-1,2,4-triazol-4-yl)benzamide] | 0.038 |

Same assay, conditions: read-out: hFIXa IC50

| Compound | IC50 [µM] |
| --- | --- |
| Cc1ccc2nc(C(CNC(=O)c3ccc(-n4cnnc4)cc3Cl)c3ccccc3)[nH]c2c1 (stereo not drawn) [Example 44] | 0.0535 |
| Cc1cccc2[nH]c(C(CNC(=O)c3ccc(-n4cnnc4)cc3Cl)c3ccccc3)nc12 (stereo not drawn) [Example 45] | 0.622 |
| Cc1ncn(-c2cc(Cl)c(C(=O)NC[C@@H](c3cccc(F)c3)c3nc4ccc(Cl)cc4[nH]3)c(Cl)c2)n1 [Example 46] | 0.00978 |
| Cc1ncn(-c2cc(Cl)c(C(=O)NCC(c3cccc(F)c3)c3nc4c(C)cc(Cl)cc4[nH]3)c(Cl)c2)n1 (stereo not drawn) [Example 47] | 0.00618 |
| COc1cc2nc(C(CNC(=O)c3c(Cl)cc(-n4cnc(C)n4)cc3Cl)c3cccc(F)c3)[nH]c2cc1Cl (stereo not drawn) [Example 48] | 0.00286 |
| COc1ccc2nc(C(CNC(=O)c3c(Cl)cc(-n4cnc(C)n4)cc3Cl)c3cccc(F)c3)[nH]c2c1 (stereo not drawn) [Example 49] | 0.0491 |
| Cc1cc2nc(C(CNC(=O)c3ccc(-n4cnnc4)cc3Cl)c3cccc(F)c3)[nH]c2cc1C (stereo not drawn) [Example 50] | 0.00569 |
| Cc1cc2nc(C(CNC(=O)c3ccc(-n4cnnc4)cc3Cl)c3ccccc3F)[nH]c2cc1C (stereo not drawn) [Example 51] | 0.0193 |
| Cc1cc2nc(C(CNC(=O)c3ccc(-n4cnnc4)cc3Cl)c3ccc(F)cc3)[nH]c2cc1C (stereo not drawn) [Example 52] | 0.00842 |
| Cc1cc2nc(C(CNC(=O)c3c(Cl)cc(-n4cnnc4)cc3Cl)c3ccc(F)cc3)[nH]c2cc1C (stereo not drawn) [Example 53] | 0.00282 |
| Cc1ncn(-c2ccc(C(=O)NCC(c3ccc(C(F)(F)F)nc3)c3nc4cc(C)c(C)cc4[nH]3)c(Cl)c2)n1 (stereo not drawn) [Example 55] | 0.427 |
| Cc1cc2nc(C(CNC(=O)c3ccc(-n4cnnc4)cc3Cl)c3cccnc3)[nH]c2cc1C (stereo not drawn) [Example 56] | 0.0154 |
| COc1cc2nc([C@@H](CNC(=O)c3c(Cl)cc(-n4cnc(C)n4)cc3Cl)c3cnc(N(C)C)nc3)[nH]c2cc1Cl [Example 57] | 0.00876 |
| COc1cc2nc([C@@H](CNC(=O)c3c(Cl)cc(-n4cnc(C)n4)cc3Cl)c3ccc(C(N)=O)cc3)[nH]c2cc1Cl [Example 58] | 0.00236 |
| COc1cc2nc(C(CNC(=O)c3c(Cl)cc(-n4cnc(C)n4)cc3Cl)c3cccc(C(=O)O)c3)[nH]c2cc1Cl (stereo not drawn) [Example 59] | 0.0015 |
| COc1cc2nc([C@@H](CNC(=O)c3c(Cl)cc(-n4cnc(C)n4)cc3Cl)c3ccc(C(=O)O)cc3)[nH]c2cc1Cl [Example 60] | 0.00479 |
| CNC(=O)c1cccc([C@H](CNC(=O)c2c(Cl)cc(-n3cnc(C)n3)cc2Cl)c2nc3cc(OC)c(Cl)cc3[nH]2)c1 [Example 61] | 0.00478 |

| Compound | IC50 [µM] |
| --- | --- |
| COc1cc2nc(C(CNC(=O)c3c(Cl)cc(-n4cnc(C)n4)cc3Cl)c3cccc(CC(=O)O)c3)[nH]c2cc1Cl (stereo not drawn) [Example 62] | 0.00175 |
| COc1cc2nc([C@@H](CNC(=O)c3c(Cl)cc(-n4cnc(C)n4)cc3Cl)c3ccc(C(=O)N(C)C)cc3)[nH]c2cc1Cl [Example 63] | 0.0277 |
| COC(=O)Cc1cccc(C(CNC(=O)c2c(Cl)cc(-n3cnc(C)n3)cc2Cl)c2nc3cc(OC)c(Cl)cc3[nH]2)c1 (stereo not drawn) [Example 64] | 0.0061 |
| CCOC(=O)c1ccc([C@H](CNC(=O)c2c(Cl)cc(-n3cnc(C)n3)cc2Cl)c2nc3cc(OC)c(Cl)cc3[nH]2)cc1 [Example 65] | 0.0056 |
| CCOC(=O)c1cccc([C@H](CNC(=O)c2c(Cl)cc(-n3cnc(C)n3)cc2Cl)c2nc3cc(OC)c(Cl)cc3[nH]2)c1 [Example 66] | 0.0168 |
| COc1cc2nc([C@@H](CNC(=O)c3c(Cl)cc(-n4cnc(C)n4)cc3Cl)c3cccc(C(=O)NC4CC4)c3)[nH]c2cc1Cl [Example 67] | 0.0029 |
| Cc1cc2nc(C(CNC(=O)c3ccc(-n4cnnc4)cc3Cl)c3cccc(F)c3)oc2cc1C (stereo not drawn) [Example 68] | 0.0719 |
| COc1cc2nc([C@@H](CNC(=O)c3c(Cl)cc(-n4cnc(C)n4)cc3Cl)n3cc(CN(C)C)nn3)[nH]c2cc1Cl [Example 72] | 0.0672 |
| COc1cc2nc(C(CNC(=O)c3c(Cl)cc(-n4cnc(C)n4)cc3Cl)n3cc(C(C)(C)O)nn3)[nH]c2cc1Cl (stereo not drawn) [Example 73] | 0.0344 |
| Cc1ncn(-c2cc(Cl)c(C(=O)NC[C@@H](c3cccc(F)c3)c3cnc4[nH]c(C)cc4c3)c(Cl)c2)n1 [Example 77] | 0.0037 |
| Cc1ncn(-c2cc(Cl)c(C(=O)NC[C@@H](c3cccc(F)c3)c3ccc4[nH]c(C)nc4c3F)c(Cl)c2)n1 [Example 78] | 0.00193 |
| Cc1ncn(-c2cc(Cl)c(C(=O)NC[C@@H](c3cccc(F)c3)c3cc(F)c4[nH]c(C)nc4c3)c(Cl)c2)n1 [Example 79] | 0.00642 |
| Cc1ncn(-c2cc(Cl)c(C(=O)NC[C@@H](c3cccc(F)c3)c3ccc4[nH]c(C)nc4n3)c(Cl)c2)n1 [Example 80] | 0.0169 |
| Cc1ncn(-c2cc(Cl)c(C(=O)NCC(c3cccc(F)c3)c3cc4nc(C)[nH]c4cn3)c(Cl)c2)n1 (stereo not drawn) [Example 81] | 0.126 |
| Cc1ncn(-c2cc(Cl)c(C(=O)NC[C@@H](c3cccc(F)c3)c3cc(C)c4[nH]c(C)nc4c3)c(Cl)c2)n1 [Example 82] | 0.0752 |
| Cc1ccc2c([C@H](CNC(=O)c3ccc(-n4cnnc4)cc3Cl)c3cccc(F)c3)c[nH]c2c1 [Example 87] | 0.0311 |
